The compounds below were run against T1, human plasma renin (Homo sapiens, UniProt P00797) (assay: Inhibition of angiotensin I formation in human plasma (Renin-Maia radioimmunoassay)). Conditions: 37° C., 1 hour, % residual plasma renin activity by angiotensin I RIA.
T1 construct: from tissue; host or cells: human EDTA plasma from volunteer subjects
T1 sequence (P00797 67-406): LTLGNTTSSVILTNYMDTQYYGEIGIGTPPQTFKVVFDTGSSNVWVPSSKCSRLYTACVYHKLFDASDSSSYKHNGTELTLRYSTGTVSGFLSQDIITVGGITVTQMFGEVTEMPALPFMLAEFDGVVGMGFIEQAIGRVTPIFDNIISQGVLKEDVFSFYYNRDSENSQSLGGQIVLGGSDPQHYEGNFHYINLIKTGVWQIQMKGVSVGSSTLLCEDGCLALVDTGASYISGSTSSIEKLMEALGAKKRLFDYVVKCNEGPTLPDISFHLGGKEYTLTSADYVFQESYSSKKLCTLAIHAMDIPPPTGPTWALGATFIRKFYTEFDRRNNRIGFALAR
Assay type: biochemical
Description: The activity of renin inhibitors can be checked by in vitro tests. These entail the decrease in the formation of angiotensin I being measured in various systems (human plasma, purified human renin).
For example human plasma which contains both renin and angiotensinogen is incubated at 37° C. with the compound to be tested. During this, angiotensin I is liberated from angiotensinogen under the action of renin and can subsequently be measured using a commercially available radioimmunoassay. This liberation of angiotensin is inhibited by renin inhibitors.
The blood is obtained from volunteer subjects (about 0.5 litre per person; Bluko sampler from ASID Bonz and Sohn, Unterschleissheim) and is collected in partially evacuated bottles while cooling in ice. Coagulation is prevented by addition of EDTA (final concentration 10 mM). After centrifugation, (HS 4 Rotor (Sorvall), 3500 rpm, 0°-4° C., 15 min; repeat if necessary), the plasma is carefully removed with a pipette and frozen in suitable portions at -30° C. Only plasma with sufficiently high renin activity are used for the test. Plasma with low renin activity are activated by cold treatment (-4° C., 3 days (prorenin→renin).
Angiotensin I is determined using the Renin-Maia® Kit (Serono Diagnostics S. A., Coinsins, Switzerland). The plasma is incubated in accordance with the instructions given therein:
1000 μl of plasma (defrozen at 0-4° C.)
100 μl of phosphate buffer (ph 7.4)
10 μl of 0.1% Genapol PFIC
12 μl of DMSO or test product
The test products are generally dissolved 10^-2 M in 100% dimethylsulfoxide (DMSO) and diluted appropriately with DMSO; the incubation mixture contains not more than 1% DMSO.
The mixtures are mixed up in ice and placed in a water bath (37° C.) for 1 hour for the incubation. 6 samples in total (each of 100 μl) are taken from an additional mixture without inhibitor and without further incubation for the determination of the initial angiotensin I content of the plasma used.
The concentrations of the test products are selected such that the 10-90% range of enzyme inhibition is approximately covered (at least five concentrations). At the end of the incubation time, three 100 μl samples from each mixture are frozen in precooled Eppendorf tubes on dry ice and stored at about -25° C. for the determination of angiotensin I (means from three individual samples).
The instructions for use of the RIA Kit (Rennin-Maia® Kit, Serono Diagnostics S. A., Coinsins, Switzerland) are followed exactly.
The calibration plot embraces the range from 0.2 to 25.0 ng of angiotensin I per ml. The basic angiotensin I content of the plasma is subtracted from all the measured values. The plasma renin activity (PRA) is reported as ng of Ang I/ml x hour. PRA values in the presence of the test substances are related to a mixture without inhibitor (=100%) and reported as % residual activity. The IC50 value is read off from the plot of % residual activity against the concentration (M) of the test product (logarithmic scale).

Row | SMILES | IC50
1 | CCC[C@H](NC(=O)[C@H](Cc1ccccc1)NC(=O)CC(C)C)C(=O)NC(CC1CCC(C)CC1)B1OC(C)(C)C(C)(C)O1 (stereo partly drawn) [Example 15, Iva-Phe-Nva-[(4-methylcyclohexyl)methyl,(4,4,5,5-tetramethyl-1,3,2-dioxaborolane-2-yl)]methylamide] | 2.8 µM
2 | CCC[C@H](NC(=O)C(Cc1cccc2ccccc12)CS(=O)(=O)C(C)(C)C)C(=O)NC(CC(C)C)B1OC(C)(C)C(C)(C)O1 (some centres unmarked) [Example 42, [3-t-Butylsulfonyl,2-(1-naphthylmethyl)]propionyl-Nva-[3-methyl,1-(4,4,5,5-tetramethyl-1,3,2-dioxaborolane-2-yl)]butylamide] | 0.95 µM
3 | CC1(C)OB(C(CC2CCCCC2)NC(=O)[C@H](CC(N)=O)NC(=O)C(Cc2cccs2)CS(=O)(=O)C(C)(C)C)OC1(C)C (some centres unmarked) [Example 54, (3-t-Butylsulfonyl,2-(2-thienylmethyl)]propionyl-Asn-[cyclohexylmethyl,(4,4,5,5-tetramethyl-1,3,2-dioxaborolane-2-yl)]methylamide] | 0.9 µM
4 | CCC[C@H](NC(=O)C(Cc1ccccc1)CS(=O)(=O)C(C)(C)C)C(=O)NC(CC1CCCC1)B1OC(C)(C)C(C)(C)O1 (some centres unmarked) [Example 44, (2-Benzyl,3-t-butylsulfonyl)propionyl-Nva-[cyclopentylmethyl,(4,4,5,5-tetramethyl-1,3,2-dioxaborolane-2-yl)]-methylamide] | 2.4 µM
5 | CCC[C@H](NC(=O)[C@H](Cc1ccccc1)NC(=O)CC(C)C)C(=O)NC(CC1CCCCC1)B1OC(C)(C)C(C)(C)O1 (stereo partly drawn) [Example 1, Iva-Phe-Nva-[cyclohexylmethyl,(4,4,5,5-tetramethyl-1,3,2-dioxaborolane-2-yl)]methylamide] | 0.42 µM
6 | CCC[C@H](NC(=O)C(Cc1cccs1)CS(=O)(=O)C(C)(C)C)C(=O)NC(CC1CCCCC1)B1OC(C)(C)C(C)(C)O1 (some centres unmarked) [Example 35, [3-t-Butylsulfonyl,2-(2-thienylmethyl)]propionyl-Nva-[cyclohexylmethyl,(4,4,5,5-tetramethyl-1,3,2-dioxaborolane-2-yl)]methylamide] | 0.28 µM
7 | CC(C)CC(=O)N[C@@H](Cc1cccs1)C(=O)N[C@@H](Cc1c[nH]cn1)C(=O)NC(CC1CCCCC1)B1OC(C)(C)C(C)(C)O1 (stereo partly drawn) [Example 4, Iva-Thi-His-[cyclohexylmethyl,(4,4,5,5-tetramethyl-1,3,2-dioxaborolane-2-yl)]methylamide] | 0.45 µM
8 | CC(C)[C@H](NC(=O)C(Cc1ccccc1)CS(=O)(=O)C(C)(C)C)C(=O)NC(CC1CCCCC1)B1OC(C)(C)C(C)(C)O1 (some centres unmarked) [Example 39, (2-Benzyl,3-t-butylsulfonyl)propionyl-Val-[cyclohexylmethyl,(4,4,5,5-tetramethyl-1,3,2-dioxaborolane-2yl)]-methylamide] | 2.1 µM
9 | CC(C)CC(=O)N[C@@H](Cc1ccccc1)C(=O)N[C@@H](Cc1cccs1)C(=O)NC(CC1CCCCC1)B1OC(C)(C)C(C)(C)O1 (stereo partly drawn) [Example 7, Iva-Phe-Thi-[cyclohexylmethyl,(4,4,5,5-tetramethyl-1,3,2-dioxaborolane-2-yl)]methylamide] | 0.67 µM
10 | CC(C)CC(=O)N[C@@H](Cc1ccccc1)C(=O)N[C@@H](Cc1c[nH]cn1)C(=O)NC(CC1CCCCCC1)B1OC(C)(C)C(C)(C)O1 (stereo partly drawn) [Example 19, Iva-Phe-His-[cycloheptylmethyl,(4,4,5,5-tetramethyl-1,3,2-dioxaborolane-2-yl)]methylamide] | 8 µM
11 | CCC[C@H](NC(=O)C(Cc1ccccc1)CS(=O)(=O)C(C)(C)C)C(=O)NC(CC1CCCCC1)B1OC(C)(C)C(C)(C)O1 (some centres unmarked) [Example 36, (2-Benzyl,3-t-butylsulfonyl)propionyl-Nva-[cyclohexylmethyl,(4,4,5,5-tetramethyl-1,3,2-dioxaborolane-2-yl)]methylamide] | 0.62 µM
12 | CCC[C@H](NC(=O)C(Cc1cccc2ccccc12)CS(=O)(=O)C(C)(C)C)C(=O)NC(CC(CC)CC)B1OC(C)(C)C(C)(C)O1 (some centres unmarked) [Example 51, [3-t-Butylsulfonyl,2-(1-naphthylmethyl)]propionyl-Nva-[3-ethyl,1-(4,4,5,5-tetramethyl-1,3,2-dioxaborolane-2-yl)]-pentylamide] | 1.8 µM
13 | CC(C)CC(=O)N[C@@H](Cc1ccccc1)C(=O)N[C@@H](Cc1c[nH]cn1)C(=O)NC(CC1CCCCC1)B1OC(C)(C)C(C)(C)O1 (stereo partly drawn) [Example 3, Iva-Phe-His-[cyclohexylmethyl,(4,4,5,5-tetramethyl-1,3,2-dioxaborolane-2-yl)]methylamide] | 2 µM
14 | CCCC[C@H](NC(=O)[C@H](Cc1ccccc1)NC(=O)CC(C)C)C(=O)NC(CC1CCCCC1)B1OC(C)(C)C(C)(C)O1 (stereo partly drawn) [Example 2, Iva-Phe-Nle-[cyclohexylmethyl,(4,4,5,5-tetramethyl-1,3,2-dioxaborolane-2-yl)]methylamide] | 1 µM
15 | CC1(C)OB(C(CC2CCCCCC2)NC(=O)[C@H](Cc2cccs2)NC(=O)C(Cc2cccs2)CS(=O)(=O)C(C)(C)C)OC1(C)C (some centres unmarked) [Example 40, [3-t-Butylsulfonyl,2-(2-thienylmethyl)]propionyl-thi[cycloheptylmethyl,(4,4,5,5-tetramethyl-1,3,2-dioxaborolane-2-yl)]methylamide] | 3.6 µM
16 | CC(C)CC(=O)N[C@@H](Cc1ccccc1)C(=O)N[C@@H](Cc1c[nH]cn1)C(=O)NC(CC1CCCCCCC1)B1OC(C)(C)C(C)(C)O1 (stereo partly drawn) [Example 18, Iva-Phe-His-[cycloctylmethyl,(4,4,5,5-tetramethyl-1,3,2-dioxaborolane-2-yl)]methylamide] | 9 µM
17 | CCC[C@H](NC(=O)C(Cc1cccs1)CS(=O)(=O)C(C)(C)C)C(=O)NC(CC1CCCCCC1)B1OC(C)(C)C(C)(C)O1 (some centres unmarked) [Example 41, [3-t-Butylsulfonyl,2-(2-thienylmethyl)]propionyl-Nva-[cycloheptylmethyl,(4,4,5,5-tetramethyl-1,3,2-dioxaborolane-2-yl)]methylamide] | 1.5 µM
18 | CC1(C)OB(C(CC2CCCCC2)NC(=O)[C@H](Cc2cccs2)NC(=O)C(Cc2cccs2)CS(=O)(=O)C(C)(C)C)OC1(C)C (some centres unmarked) [Example 43, [3-t-Butylsulfonyl,2-(2-thienylmethyl)]propionyl-Thi-[cyclohexylmethyl,(4,4,5,5-tetramethyl-1,3,2-dioxaborolane-2-yl)]methylamide] | 0.55 µM
19 | CCC[C@H](NC(=O)[C@H](Cc1ccccc1)NC(=O)CC(C)C)C(=O)NC(CC1CCCCC1)B1OC2CC3CC(C3(C)C)C2(C)O1 (single isomer, unassigned) [Example 13, Iva-Phe-Nva-[cyclohexylmethyl, (-)-pinanedioxyboryl]-methylamide] | 2.4 µM
20 | CCC[C@H](NC(=O)[C@H](Cc1ccccc1)NC(=O)CC(C)C)C(=O)NC(CC1CCCCCC1)B1OC(C)(C)C(C)(C)O1 (some centres unmarked) [Example 16] | 3 µM
21 | CCC[C@H](NC(=O)[C@H](Cc1ccccc1)NC(=O)CC(C)C)C(=O)NC(CC1CCCCC1)B(O)O (stereo partly drawn) [Example 5, Iva-Phe-Nva-(cyclohexylmethyl,dihydroxyboryl)methylamide] | 0.55 µM
22 | CCC[C@H](NC(=O)C(Cc1cccc2ccccc12)CS(=O)(=O)C(C)(C)C)C(=O)NC(CC1CCCC1)B1OC(C)(C)C(C)(C)O1 (some centres unmarked) [Example 50] | 1.5 µM
23 | CCC[C@H](NC(=O)C(Cc1ccccc1)CS(=O)(=O)C(C)(C)C)C(=O)NC(CC(CC)CC)B1OC(C)(C)C(C)(C)O1 (some centres unmarked) [Example 52, (2-Benzyl,3-t-butylsulfonyl)propionyl-Nvu-[3-ethyl,1-(4,4,5,5-tetramethyl-1,3,2-dioxaborolane-2-yl)]pentylamide] | 2.8 µM
